These results are taken from patent publication US12358922B1, “Berberine alpha-ketoglutarate salt, crystalline form, methods of preparation and applications thereof” (priority 2024, dated 2025).

The conditions of series [1]: cited from earlier work.
The nature of series [2]: Solubility measurement of berberine salts in water (Example 3). The conditions noted are these: room temperature (about 20° C.).

As for `COc1ccc2cc3[n+](cc2c1OC)CCc1cc2c(cc1-3)OCO2` [berberine chloride, berberine chloride dihydrate], the loss of water entry in series [1] (elevated temperature or low humidity environment) is given as “more than 8%”. Also, the uptake of water result in series [1] (in water or a high humidity environment, converts to tetrahydrate form) is reported as “about 8%”.

Turning to berberine hemi-sulfate, the “solubility in water at room temperature” value in series [2] was over 20 mg/mL.
